In ChEMBL document CHEMBL3400038, “Synthesis and evaluation of benzosuberone embedded with 1,3,4-oxadiazole, 1,3,4-thiadiazole and 1,2,4-triazole moieties as new potential anti proliferative agents” (2015):

Assays:
Type in all cases: functional
MDA-MB-231 = test: Antiproliferative activity against human MDA-MB-231 cells after 48 hrs by SRB assay; settings: MDA-MB-231, 48 h
[1] = Antiproliferative activity against human PANC1 cells after 48 hrs by SRB assay; settings: PANC-1, 48 h
HeLa = test: Antiproliferative activity against human HeLa cells after 48 hrs by SRB assay
A549 = test: Antiproliferative activity against human A549 cells after 48 hrs by SRB assay; settings: A549, 48 h

| SMILES | GI50 (MDA-MB-231) | GI50 (HeLa) | GI50 (A549) | GI50 [1] |
| --- | --- | --- | --- | --- |
| COC(=O)Nc1nc2cc(C(=O)c3cccs3)ccc2[nH]1 [NOCODAZOLE] | 17 nM | 15 nM | 20 nM | < 10 nM |
| Cc1ccc(-c2nnc(C3=C(Cl)c4cc(C)c(C)cc4CCC3)o2)cc1 | 1760 nM | 679 nM | 2470 nM | 3880 nM |
| COc1cc(-c2nnc(C3=C(Cl)c4cc(C)c(C)cc4CCC3)o2)cc(OC)c1OC | 956 nM | 562 nM | 1260 nM | 1880 nM |
| COc1cc2c(c(OC)c1OC)-c1ccc(OC)c(=O)cc1[C@@H](NC(C)=O)CC2 [COLCHICINE] | < 10 nM | 40 nM | 30 nM | 10 nM |
| COc1cccc2c1C(=O)c1c(O)c3c(c(O)c1C2=O)C[C@@](O)(C(=O)CO)C[C@@H]3O[C@H]1C[C@H](N)[C@H](O)[C@H](C)O1 [DOXORUBICIN] | 20 nM | < 10 nM | < 10 nM | < 10 nM |
| CC(=O)O[C@H]1C(=O)[C@@]2(C)[C@H]([C@H](OC(=O)c3ccccc3)[C@]3(O)C[C@H](OC(=O)[C@H](O)[C@@H](NC(=O)c4ccccc4)c4ccccc4)C(C)=C1C3(C)C)[C@]1(OC(C)=O)CO[C@@H]1C[C@@H]2O [PACLITAXEL] | < 10 nM | 20 nM | < 10 nM | 12 nM |
| COc1cc(-c2nnc(C3=C(Cl)c4ccccc4CCC3)o2)cc(OC)c1OC | 3320 nM | 1730 nM | 4570 nM | 729 nM |
| Cc1cc2c(cc1C)C(Cl)=C(c1n[nH]c(=S)o1)CCC2 | 918 nM | 4440 nM | 3270 nM | 2460 nM |
| Cc1cc2c(cc1C)C(Cl)=C(c1nnc(-c3ccc(F)cc3)o1)CCC2 | 1400 nM | 6420 nM | 2810 nM | 520 nM |
| COc1ccc(C[C@@H](O)c2cc(OC)c(OC)c(OC)c2)cc1O [COMBRETASTATIN] | 19 nM | 10 nM | 10 nM | 20 nM |
| Cc1cc2c(cc1C)C(Cl)=C(c1nnc(-c3cccc(I)c3)o1)CCC2 | 2670 nM | 4460 nM | 2780 nM | 4120 nM |
| COc1ccc([N+](=O)[O-])c(-c2nnc(C3=C(Cl)c4cc(C)c(C)cc4CCC3)o2)c1OC | 1160 nM | 310 nM | 871 nM | 957 nM |
| Cc1cc2c(cc1C)C(Cl)=C(c1nnc(-c3cccc(Cl)c3)o1)CCC2 | 3310 nM | 5940 nM | 1970 nM | 4570 nM |
| Cc1cc2c(cc1C)C(Cl)=C(c1nnc(-c3cccc(C(F)(F)F)c3)o1)CCC2 | 2460 nM | 1570 nM | 1970 nM | 794 nM |

Further lines, with some results ahead:

| GI50 (MDA-MB-231) | GI50 (HeLa) | GI50 (A549) | SMILES | GI50 [1] |
| --- | --- | --- | --- | --- |
| 3280 nM | 1320 nM | 2610 nM | O=[N+]([O-])c1ccc(-c2nnc(C3=C(Cl)c4ccccc4CCC3)o2)cc1 | 3980 nM |
| 4930 nM | 5500 nM | 3490 nM | Sc1nnc(C2=C(Cl)c3ccccc3CCC2)n1-c1ccccc1 | 3510 nM |
| 2460 nM | 3870 nM | 4880 nM | O=C(NNC(=S)Nc1ccccc1)C1=C(Cl)c2ccccc2CCC1 | 5850 nM |
| 1400 nM | 79 nM | 3420 nM | Cc1ccc(-c2nnc(C3=C(Cl)c4ccccc4CCC3)o2)cc1 | 6810 nM |
| 5780 nM | 4920 nM | 4780 nM | Cc1cc2c(cc1C)C(Cl)=C(c1nnc(Nc3ccccc3)s1)CCC2 | 3660 nM |
| 2640 nM | 1160 nM | 1490 nM | Cc1cc2c(cc1C)C(Cl)=C(c1nnc(S)n1-c1ccccc1)CCC2 | 2650 nM |
| 4940 nM | 4100 nM | 2560 nM | ClC1=C(c2nnc(-c3cccc(I)c3)o2)CCCc2ccccc21 | 2370 nM |
| 8280 nM | 2830 nM | 5360 nM | COc1ccc([N+](=O)[O-])c(-c2nnc(C3=C(Cl)c4ccccc4CCC3)o2)c1OC | 7230 nM |
| 3140 nM | 471 nM | 759 nM | Cc1cc2c(cc1C)C(Cl)=C(C(=O)NNC(=S)Nc1ccccc1)CCC2 | 928 nM |
| 947 nM | 1320 nM | 2350 nM | ClC1=C(c2nnc(Nc3ccccc3)s2)CCCc2ccccc21 | 158 nM |
| 2760 nM | 4680 nM | 1960 nM | Cc1cc2c(cc1C)C(Cl)=C(c1nnc(-c3ccccc3)o1)CCC2 | 4120 nM |
| 1010 nM | 981 nM | 4960 nM | S=c1[nH]nc(C2=C(Cl)c3ccccc3CCC2)o1 | 3430 nM |
| 1970 nM | 3220 nM | 2270 nM | ClC1=C(c2nnc(-c3ccccc3)o2)CCCc2ccccc21 | 675 nM |
